Results as given in patent US20160262443A1, “USE OF A COMPOSITION CONTAINING 1,3-PROPANEDIOL AS E-LIQUID” (priority 2014, published 2016).
Where two headings read alike, the source gives them in different places.

Experiments:
[1] = Kinematic viscosity measurement of e-liquid products (Example 6); format: physicochemical
Experimental: Then, the kinematic viscosity of products A, B, C and D is measured.

[2] = format: physicochemical; settings: for DTA Transformation temperature (exothermic peak, reaction and/or decomposition) / DTA Vaporization temperature (endothermic peak): 25 to 350° C.
Experimental: Thermogravimetric analysis is a thermal analysis method in which the changes of the physical and chemical properties of the materials are measured as a function of the temperature. TGA can yield information on the physical phenomena, such as vaporization or combustion.
Similarly, one can obtain information on chemical phenomena such as dehydration or decomposition. In differential thermal analysis (DTA), the material under study and an inert reference material are exposed to identical thermal cycles. During the analysis, the difference in temperature between the sample and the reference material is recorded. These differences in temperatures monitored versus time relative to the inert reference material provide information on the exothermic or endothermic thermal phenomena undergone by the sample. By integration of the heat flow curve, DTA analysis yields the so-called endothermic enthalpy values when there is energy absorption, or so-called exothermic enthalpy values when energy is released in the form of heat. The endothermic character is connected with a change in the state of the compound (for example, vaporization), while the exothermic character is induced by decomposition reactions or intra- and intermolecular chemical reactions.
The analysis conditions are the following: • test specimen: 50 mg • open crucible under air flow: 100 mL/min • heating ramp: 10° C./min • temperature range: 25 at 350° C. (temperature conditions representative of normal use and of misuse of an electronic cigarette). Between analyses, the apparatus is cleaned by heating at 600° C. under air flow, in order to eliminate any trace of unvaporized residue deposited on the crucible, the arms of the scale, or the walls of the furnace.

In the case of `OCCCO` [1,3-propanediol], the “Kinematic viscosity at 20° C.” value [1] is reported as 52.6 mPa · s, the “DTA Transformation temperature (exothermic peak, reaction and/or decomposition)” value ([2]; air flow, 10° C./min) is reported as “without any thermal decomposition” and the “DTA Vaporization temperature (endothermic peak)” value (shortened to “DTA Vaporization temperature”) ([2]; air flow, 10° C./min) is reported as 189 °C.

With `OCC(O)CO` [Glycerol, glycerol] the “DTA residue unvaporized at 250° C.” value ([2]; air flow, 10° C./min) was 27.3% and the “DTA Vaporization temperature” value ([2]; air flow, 10° C./min) was 260 °C.

For `CC(O)CO` (stereo not drawn) [Propylene glycol, propylene glycol], the “DTA Transformation temperature (exothermic peak, reaction and/or decomposition)” value ([2]; air flow, 10° C./min) was “without any thermal decomposition”, the “DTA Vaporization temperature” value ([2]; air flow, 10° C./min) was 174 °C and the “DTA Vaporization temperature” value ([2]; air flow, 10° C./min, listed as propylene glycol) was 170 °C. The “evaporation temperature lower than that of nicotine” value ([2]; difference to nicotine) was 16 °C.
